This note sets out measurements from paper PMC8550792, “Evolution of kinase polypharmacology across HSP90 drug discovery” (Cell Chemical Biology, 2021).

The structures appear in SMILES notation.

Common to all, as to experiment: biochemical
Format in all cases: biochemical

Assay [1] deals with T1, 382 unique human kinases (Homo sapiens, UniProt Q16832, T654M).
T1 construct: purchased Reaction Biology (HotSpot contract assay)
T1 sequence (Q16832 22-855 T654M): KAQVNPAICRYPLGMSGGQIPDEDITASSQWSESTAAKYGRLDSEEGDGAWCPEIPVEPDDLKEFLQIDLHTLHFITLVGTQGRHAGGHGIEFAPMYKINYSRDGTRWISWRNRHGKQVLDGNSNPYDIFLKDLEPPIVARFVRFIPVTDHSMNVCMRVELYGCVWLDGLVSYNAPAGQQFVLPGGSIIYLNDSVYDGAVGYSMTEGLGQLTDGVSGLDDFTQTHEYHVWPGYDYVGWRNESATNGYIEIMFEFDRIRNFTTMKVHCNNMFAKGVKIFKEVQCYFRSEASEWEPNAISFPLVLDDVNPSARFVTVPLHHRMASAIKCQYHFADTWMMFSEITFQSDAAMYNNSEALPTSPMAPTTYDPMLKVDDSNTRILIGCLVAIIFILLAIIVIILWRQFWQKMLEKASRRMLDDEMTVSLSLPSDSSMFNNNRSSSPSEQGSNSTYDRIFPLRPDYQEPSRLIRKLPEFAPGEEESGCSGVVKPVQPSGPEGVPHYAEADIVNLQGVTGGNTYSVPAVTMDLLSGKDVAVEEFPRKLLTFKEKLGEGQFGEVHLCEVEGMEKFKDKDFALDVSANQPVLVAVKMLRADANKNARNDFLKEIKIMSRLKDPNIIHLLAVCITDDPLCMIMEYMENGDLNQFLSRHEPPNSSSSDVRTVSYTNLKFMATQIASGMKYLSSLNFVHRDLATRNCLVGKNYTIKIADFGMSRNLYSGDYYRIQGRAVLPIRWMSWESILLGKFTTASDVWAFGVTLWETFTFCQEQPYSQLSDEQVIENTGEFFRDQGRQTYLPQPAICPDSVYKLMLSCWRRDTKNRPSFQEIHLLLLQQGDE
The following applies: DDR2 (T654M), 10 uM; for remaining activity at 10 µM: read-out: % Enzyme Activity (relative to DMSO controls).

In assay [2] the target is T2, 382 unique human kinases (Homo sapiens, UniProt Q13470).
T2 construct: purchased Reaction Biology (HotSpot contract assay)
T2 sequence (Q13470 1-666): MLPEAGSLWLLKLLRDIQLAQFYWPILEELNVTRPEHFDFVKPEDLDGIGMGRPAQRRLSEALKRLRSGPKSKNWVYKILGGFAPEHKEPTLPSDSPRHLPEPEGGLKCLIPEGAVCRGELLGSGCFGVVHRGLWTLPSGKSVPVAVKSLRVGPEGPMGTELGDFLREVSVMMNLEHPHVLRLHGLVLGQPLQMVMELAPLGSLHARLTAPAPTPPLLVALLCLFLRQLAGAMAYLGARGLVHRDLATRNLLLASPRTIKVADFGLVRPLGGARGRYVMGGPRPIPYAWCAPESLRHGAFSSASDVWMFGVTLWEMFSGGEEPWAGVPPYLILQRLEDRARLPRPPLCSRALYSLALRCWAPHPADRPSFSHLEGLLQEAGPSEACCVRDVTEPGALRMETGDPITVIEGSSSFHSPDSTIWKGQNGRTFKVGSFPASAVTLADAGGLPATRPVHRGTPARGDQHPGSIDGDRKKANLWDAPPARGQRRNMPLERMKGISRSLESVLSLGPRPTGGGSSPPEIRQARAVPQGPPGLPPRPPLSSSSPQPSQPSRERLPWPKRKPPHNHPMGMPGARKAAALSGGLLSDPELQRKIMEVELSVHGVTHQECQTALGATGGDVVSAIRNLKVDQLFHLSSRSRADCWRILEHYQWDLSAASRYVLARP
The settings on record: TNK1, 10 uM; for remaining activity at 10 µM: read-out: % Enzyme Activity (relative to DMSO controls).

For assay [3], the target named is T3, 382 unique human kinases (Homo sapiens, UniProt Q9BZL6, G870E).
T3 construct: purchased Reaction Biology (HotSpot contract assay)
T3 sequence (Q9BZL6 1-878 G870E): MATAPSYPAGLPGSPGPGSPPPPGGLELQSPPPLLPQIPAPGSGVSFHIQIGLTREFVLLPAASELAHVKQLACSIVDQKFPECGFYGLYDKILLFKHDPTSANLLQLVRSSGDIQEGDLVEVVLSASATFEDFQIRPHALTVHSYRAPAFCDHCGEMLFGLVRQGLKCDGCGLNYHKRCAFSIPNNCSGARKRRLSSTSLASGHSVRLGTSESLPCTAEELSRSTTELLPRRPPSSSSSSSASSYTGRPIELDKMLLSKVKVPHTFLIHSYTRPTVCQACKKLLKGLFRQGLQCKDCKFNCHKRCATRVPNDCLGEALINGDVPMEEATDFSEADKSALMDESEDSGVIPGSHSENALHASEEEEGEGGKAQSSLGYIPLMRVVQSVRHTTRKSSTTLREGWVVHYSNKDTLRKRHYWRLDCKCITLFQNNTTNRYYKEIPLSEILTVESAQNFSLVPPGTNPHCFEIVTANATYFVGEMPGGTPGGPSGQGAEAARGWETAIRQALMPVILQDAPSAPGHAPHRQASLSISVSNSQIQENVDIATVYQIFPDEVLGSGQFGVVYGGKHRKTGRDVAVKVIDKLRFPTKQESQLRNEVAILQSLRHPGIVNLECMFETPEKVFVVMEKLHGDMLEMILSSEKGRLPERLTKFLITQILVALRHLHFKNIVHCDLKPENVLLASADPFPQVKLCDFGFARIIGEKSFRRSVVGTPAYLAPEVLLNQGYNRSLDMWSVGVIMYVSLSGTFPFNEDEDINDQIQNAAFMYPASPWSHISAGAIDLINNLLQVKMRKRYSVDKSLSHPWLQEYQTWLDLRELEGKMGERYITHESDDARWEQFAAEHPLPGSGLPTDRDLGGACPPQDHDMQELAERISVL
The settings on record: PKD2 (G870E), [ATP] 30 µM, compound 10 uM; for remaining activity at 10 µM: read-out: % Enzyme Activity (relative to DMSO controls).

`CC(C)c1cc(-c2n[nH]c(=O)n2-c2ccc3c(ccn3C)c2)c(O)cc1O` [Ganetespib (STA9090)]: the remaining activity at 10 µM came to 75% on 382 unique human kinases [1] and 65.8% on 382 unique human kinases [2].
Take `CC(C)c1cc(-c2n[nH]c(=O)n2-c2ccc3c(ccn3C)c2)c(O)cc1O` [Ganetespib]: the remaining activity at 10 µM on 382 unique human kinases [3] came out at 59.7%.
Take `CCNC(=O)c1noc(-c2cc(C(C)C)c(O)cc2O)c1-c1ccc(CN2CCOCC2)cc1` [Luminespib (AUY-922)]: the figures for the “% Enzyme Activity (relative to DMSO controls)” value on 382 unique human kinases [1] and on 382 unique human kinases [2] were 100.41% and 96.12%, respectively. The figures for the remaining activity at 10 µM on 382 unique human kinases [1] and on 382 unique human kinases [2] were 102% and 97.5%, respectively.
As for `CCNC(=O)c1noc(-c2cc(C(C)C)c(O)cc2O)c1-c1ccc(CN2CCOCC2)cc1` [Luminespib], at 382 unique human kinases [3], the “% Enzyme Activity (relative to DMSO controls)” value was 103.84% and the remaining activity at 10 µM came out at 104%.
